From article PMC7529893, “Structural basis for substrate recognition and chemical inhibition of oncogenic MAGE ubiquitin ligases” (Nature Communications, 2020)
Like-named read-outs stand apart in the source and are kept apart here.

Target: T1, MAGE-A11:PCF11 interaction (GST-MAGE-A11 MHD and FAM-PCF11_4) (Homo sapiens, UniProt P43364)
T1 construct: GST-MAGE-A11 MHD (human MAGE-A11 MHD amino acid 218-429); made in house; host or cells: E. coli BL21(DE3)
T1 sequence (P43364 218-429): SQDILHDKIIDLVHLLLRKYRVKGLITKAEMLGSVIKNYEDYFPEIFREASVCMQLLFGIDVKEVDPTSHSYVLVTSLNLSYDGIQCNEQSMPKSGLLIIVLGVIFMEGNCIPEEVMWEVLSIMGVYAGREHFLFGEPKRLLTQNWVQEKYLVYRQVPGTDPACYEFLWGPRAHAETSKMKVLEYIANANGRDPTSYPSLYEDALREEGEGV
Experiment: TR-FRET dose response test of compounds for disruption of MAGE-A11:PCF11 binding
Protocol: The TR-FRET assay buffer with a formula of 50 mM Tris pH 7.5, 20 mM MgCl2, 0.1 mg/ml BSA and 1 mM DTT was freshly prepared before each experiment. All TR-FRET assays were performed in black 384-well plates with 20 µl/well assay volume in the TR-FRET assay buffer at room temperature (~25 °C). All peptides or compounds were solubilized in DMSO. To test the competitive activity of peptides or compounds against the interaction between GST-MAGE-A11 MHD and FAM-PCF11_4 peptide, 10 µl/well peptide or compound at specified concentration was dispensed into a black 384-well low volume plate, followed by 5 µl/well FAM-PCF11_4 (800 nM), 5 µl/well Tb-anti-GST (20 nM), and GST-MAGE-A11 MHD (20 nM). The assay components in each well was then mixed by shaking the plate on an IKA MTS 2/4 digital microtiter plate shaker (IKA Works; Wilmington, NC, USA) for 1 min. The plate was further centrifuged in an Eppendorf 5810 centrifuge with an A-4-62 swing-bucket rotor (Eppendorf AG, Hamburg, Germany) at 201 g for 30 s. The plate was then incubated for 90 min with a lid to avoid light exposure to the assay components. After incubation, the fluorescent emission signals at 520 nm and 490 nm channels of individual wells were measured with a PHERAstar FS plate reader (BMG Labtech; Durham, NC, USA) by using a 340 nm excitation filter, 100 µs delay time, and 200 µs integration time. The TR-FRET fluorescence emission ratio (TR-FRET signal) for each well was presented as 10,000 × 520 nm/490 nm, which was used directly for curve fitting, or further converted to %Inhibition based on the respective positive and negative controls. The graphic software GraphPad Prism 4.81 (GraphPad Software; La Jolla, CA, USA) was used to generate curves and derive IC50 values of tested peptides or compounds, if applicable.
TR-FRET screen for identifying MAGE-A11 small molecule inhibitors was performed as follows. The primary one-concentration screening and subsequent 10 or 20-concentration dose-response tests were accomplished with an automated High Throughput Screening system (HighRes Biosolutions, Beverly, MA)[30]. In the primary screening, 15 µl/well FAM-PCF11_4 (267 nM) was first dispensed with a Multidrop Combi Reagent Dispenser (Thermo Fisher Scientific, Waltham, MA) to black 384-well low-volume assay plates. The plates were spun down with a Velocity11 VSpin microplate centrifuge (Agilent Technologies, Santa Clara, CA). In total, 30 nl/well of 10 mM compound/DMSO solutions, or DMSO alone, were transferred from compound plates (the St. Jude FDA drug and bioactive library, Drug-like library and Lead-like library) or a control plate to the assay plates with a Pin Tool (V&P Scientific, San Diego, CA). The compounds were arrayed in columns 3–12 and columns 15–24 of compound plates. The controls were arrayed in columns 1, 2, 13, and 14 of a compound plate. In all, 5 µl/well Tb-anti-GST (20 nM) and GST-MAGE-A11 (20 nM) or 5 µl/well Tb-anti-GST (20 nM) alone was then dispensed to selected wells with a Multidrop Combi Reagent Dispenser. The final assay volume was 20 µl/well. The final DMSO concentration was 0.25% (v/v) (0.1% (v/v) from the FAM-PCF11_4 DMSO stock solution and 0.15% (v/v) from the compound-DMSO solution or the DMSO for the control wells). The final tested compound concentration was 15 µM. The final FAM-PCF11_4 concentration was 200 nM and the final Tb-anti-GST concentration was 5 nM. The final GST-MAGE-A11 concentration was 5 nM except for those selected positive control wells in which GST-MAGE-A11 was not presented. The plates were then shaken with a big bear shaker (Big Bear Automation, Santa Clara, California) and spun down with the Velocity11 VSpin microplate centrifuge for 20 s. The plates were then incubated at room temperature in a Liconic incubator (Liconic US, Woburn, MA) for 90 min. The TR-FRET signals for individual wells were measured with a PHERAstar FS plate reader. The %Inhibition of each tested inhibitor was calculated by using Eq. 1.

[1] = Supplementary Data 3, 59 quinoline compounds, read-out: TR-FRET IC50
[2] = Dose response TR-FRET screening of nine scaffold groups against MAGE-A11:PCF11, read-out: consensus IC50

| Compound | IC50 [1] | IC50 [2] |
| --- | --- | --- |
| CCCCCN(CCC)CCCNc1ccnc2cc(C(F)(F)F)ccc12 [SJ000361271-1, CCCCCN(CCC)CCCNc1ccnc2cc(ccc12)C(F)(F)F] | > 70 µM | – |
| C=CCn1c(=O)c2c(nc(-c3ccc(S(=O)(=O)O)cc3)n2C)n(C)c1=O [SJ000287614-4] | – | > 70 µM |
| CCC(CC)c1ccc2c(NCCCNCc3cc(F)ccc3OC)ccnc2c1 [SJ000311269-1] | – | 43 µM |
| CCCCOc1ccc(N(C(C)=O)C2=C(Cl)C(=O)c3ccccc3C2=O)cc1 [SJ000032717-1] | – | 8.71 µM |
| COc1ccc(F)cc1CNCCCNc1ccnc2cc(C3CCCCC3)ccc12 [SJ000311265-1] | – | 24.2 µM |
| FC(F)(F)c1ccc2c(NCCCNCc3ccc[nH]3)ccnc2c1 [SJ000361105-1, FC(F)(F)c1ccc2c(NCCCNCc3ccc[nH]3)ccnc2c1] | 33 µM | – |
| CCCN(CCCNc1ccnc2cc(C(F)(F)F)ccc12)CCC(C)(C)C [SJ000520476-1, CCCN(CCCNc1ccnc2cc(ccc12)C(F)(F)F)CCC(C)(C)C] | > 70 µM | – |
| c1ccc(CCc2ccc3c(NCCCNCc4cccc5c4OCO5)ccnc3c2)cc1 [SJ000311257-1] | – | 62.3 µM |
| CS(=O)(=O)c1ccc(C2=C(c3ccccc3)C(=O)OC2)cc1 [SJ000285362-5] | – | 67.6 µM |
| COc1ccc(Oc2ccc3c(NCCCNCc4ccco4)ccnc3c2)cc1 [SJ000311218-1, COc1ccc(Oc2ccc3c(NCCCNCc4occc4)ccnc3c2)cc1] | > 70 µM | – |
| N#Cc1ccc(Cc2ccc3c(NCCCNCc4cccc5c4OCO5)ccnc3c2)cc1 [SJ000311304-1] | – | 66 µM |
| C=C(C)CSc1nc2cc(-c3ccccc3)sc2c(=O)n1CCN1CCOCC1 [SJ000456069-1] | – | 0.861 µM |
| CCCN(CCCNc1ccnc2cc(C(F)(F)F)ccc12)CC1CC1 [SJ000361266-1, CCCN(CCCNc1ccnc2cc(ccc12)C(F)(F)F)CC3CC3] | > 70 µM | – |
| O=C1C(Cl)=C(NCCN2CCOCC2)C(=O)c2ncccc21 [SJ000312204-6] | – | 2.25 µM |
| CCC(CC)c1ccc2c(NCCCNCc3cccc(OC)c3O)ccnc2c1 [SJ000311267-1] | – | 9.95 µM |
| COc1ccc(F)cc1CNCCCNc1ccnc2cc(Oc3ccccc3)ccc12 [SJ000311209-1] | – | 29 µM |
| CCC(CC)c1ccc2c(NCCCNCc3cccc4c3OCO4)ccnc2c1 [SJ000311268-1] | – | 28.9 µM |
| FC(F)(F)Oc1ccccc1CN(CCCCNc1ccnc2cc(Cl)ccc12)Cc1ccccc1 [SJ000520459-1, FC(F)(F)Oc1ccccc1CN(CCCCNc2ccnc3cc(Cl)ccc23)Cc4ccccc4] | > 70 µM | – |
| COc1cccc(CNCCCNc2ccnc3cc(CC(C)C)ccc23)c1O [SJ000311259-1] | – | 68.5 µM |
| COc1cccc(CNCCCNc2ccnc3cc(CCc4ccccc4)ccc23)c1O [SJ000311255-1] | – | 26.5 µM |

Continued, values first:

| IC50 [1] | IC50 [2] | Compound |
| --- | --- | --- |
| > 70 µM | – | FC(F)(F)c1ccc2c(NCCCNCc3cc4ccccc4s3)ccnc2c1 [SJ000521060-1, FC(F)(F)c1ccc2c(NCCCNCc3cc4ccccc4s3)ccnc2c1] |
| – | 68.1 µM | Cc1cc(C)c(CNCCCNc2ccnc3cc(Cl)ccc23)c(C)c1 [SJ000520911-2] |
| – | 9.46 µM | COc1cc(NCc2ccc3nc(N)nc(N)c3c2C)cc(OC)c1OC [SJ000574313-7] |
| > 70 µM | – | CCCN(CCCNc1ccnc2cc(Cl)ccc12)Cc1c(C)cc(C)cc1C [SJ000522749-1, CCCN(CCCNc1ccnc2cc(Cl)ccc12)Cc3c(C)cc(C)cc3C] |
| > 70 µM | – | Clc1ccc2c(NCCCNCc3csc4ccccc34)ccnc2c1 [SJ000521033-1, Clc1ccc2c(NCCCNCc3csc4ccccc34)ccnc2c1] |
| > 70 µM | – | FC(F)(F)c1ccc2c(NCCCNCc3csc4ccccc34)ccnc2c1 [SJ000521061-1, FC(F)(F)c1ccc2c(NCCCNCc3csc4ccccc34)ccnc2c1] |
| – | 54.8 µM | CCCCCCCCOc1ccc(NC2=C(N)C(=O)c3ccccc3C2=O)cc1 [SJ000562629-1] |
| – | 67.1 µM | Clc1ccc2c(NCCCNCc3ccc4[nH]ccc4c3)ccnc2c1 [SJ000520909-2] |
| > 70 µM | – | CCCN(CCCNc1ccnc2cc(Cl)ccc12)Cc1cc(C(F)(F)F)ccc1OC [SJ000523012-1, CCCN(CCCNc1ccnc2cc(Cl)ccc12)Cc3cc(ccc3OC)C(F)(F)F] |
